Data published in the supplement of paper PMC10307832.

Key:
Experiment in all cases: relative viability (nuclei count vs DMSO), 5 days (fraction); higher = more cells survive
AT-7519 + Decitabine = compound: O=C(NC1CCNCC1)c1n[nH]cc1NC(=O)c1c(Cl)cccc1Cl [AT-7519] + Nc1ncn([C@H]2C[C@H](O)[C@@H](CO)O2)c(=O)n1 [Decitabine] (partner 2 µM)
Method in brief: (§1)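 Lung cancer cell lines were seeded in 1536-well plates and dosed by pin tool the next day, with either a single drug or a fixed anchor-drug dose combined with five library-drug doses (not always all listed) spaced in √10 steps. Five days later, one step fixed the cells and stained their nuclei (final 0.05% Triton X-100, 1% formaldehyde, 1 ug/ml Hoechst), and nuclei were counted on 4× images. Relative viability is the nuclei count in treated wells divided by the count in vehicle wells, and each value is the median of duplicate plates.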

AT-7519 + Crizotinib = compound: O=C(NC1CCNCC1)c1n[nH]cc1NC(=O)c1c(Cl)cccc1Cl [AT-7519] + C[C@@H](Oc1cc(-c2cnn(C3CCNCC3)c2)cnc1N)c1c(Cl)ccc(F)c1Cl [Crizotinib] (partner 1 µM)
Method in brief: as §1

[1] = compound: C1=CC2=C(C=C(C(=C2N=C1)O)N=NC3=CC4=C(C=C3)C=C(C=C4)S(=O)(=O)O)S(=O)(=O)O + CC(=O)c1c(C)c2cnc(Nc3ccc(N4CCNCC4)cn3)nc2n(C2CCCC2)c1=O [Palbociclib] (partner 0.5 µM)
Method in brief: as §1

[2] = compound: C1=CC2=C(C=C(C(=C2N=C1)O)N=NC3=CC4=C(C=C3)C=C(C=C4)S(=O)(=O)O)S(=O)(=O)O + NC(=O)Nc1cc(-c2cccc(F)c2)sc1C(=O)N[C@H]1CCCNC1 [AZD7762] (partner 0.2 µM)
Method in brief: as §1

Cell Line	relative viability (AT-7519 + Decitabine; first compound 0.01 µM)	relative viability (AT-7519 + Decitabine; first compound 0.03162 µM)	relative viability (AT-7519 + Decitabine; first compound 0.3162 µM)	relative viability (AT-7519 + Decitabine; first compound 1 µM)	relative viability (AT-7519 + Crizotinib; first compound 0.01 µM)	relative viability (AT-7519 + Crizotinib; first compound 0.03162 µM)	relative viability (AT-7519 + Crizotinib; first compound 0.3162 µM)	relative viability (AT-7519 + Crizotinib; first compound 1 µM)	relative viability ([1]; first compound 0.08 µM)	relative viability ([1]; first compound 0.253 µM)	relative viability ([1]; first compound 0.8 µM)	relative viability ([1]; first compound 2.53 µM)	relative viability ([1]; first compound 8 µM)	relative viability ([2]; first compound 0.08 µM)	relative viability ([2]; first compound 0.253 µM)	relative viability ([2]; first compound 0.8 µM)	relative viability ([2]; first compound 2.53 µM)	relative viability ([2]; first compound 8 µM)
NCI-H2126	0.524	0.568	0.552	0.495	1.07	1.05	0.931	1	0.342	0.363	0.359	0.36	0.327	1.05	0.971	0.941	0.939	0.994
LXF-289	0.383	0.377	0.333	0.375	0.838	0.898	0.811	0.816	0.672	0.551	0.559	0.608	0.553	1.23	1.06	1.07	1.11	1.15
NCI-H2405	0.741	0.744	0.711	0.486	0.794	0.847	0.827	0.598	0.517	0.543	0.504	0.575	0.513	0.898	0.784	0.738	0.77	0.732
NCI-H1755	0.724	0.721	0.825	0.716	0.837	1.03	0.935	0.688	0.473	0.438	0.437	0.468	0.415	0.535	0.419	0.361	0.457	0.459
HCC-78	0.688	0.704	0.696	0.626	0.33	0.324	0.331	0.42	0.566	0.463	0.505	0.45	0.466	0.725	0.628	0.675	0.657	0.591
LOU-NH91	0.761	0.791	0.795	0.739	0.73	0.742	0.766	0.711	0.573	0.524	0.503	0.559	0.558	0.779	0.75	0.737	0.794	0.676
NCI-H3122	0.508	0.484	0.511	0.193	0.272	0.277	0.241	0.208	0.215	0.185	0.176	0.2	0.216	0.967	0.976	0.975	1.03	0.962
HCC-827	0.337	0.347	0.355	0.3	0.895	0.945	0.862	0.855	0.537	0.451	0.492	0.455	0.542	0.184	0.279	0.235	0.192	0.246
NCI-H1975	0.398	0.371	0.252	0.271	1.09	0.973	0.877	0.206	0.753	0.592	0.606	0.639	0.666	0.715	0.69	0.671	0.748	0.702
NCI-H1651	0.678	0.555	0.626	0.614	0.858	0.846	0.909	0.847	0.522	0.502	0.511	0.55	0.499	0.501	0.49	0.474	0.489	0.437
NCI-H441	0.253	0.213	0.26	0.152	0.656	0.905	0.673	0.428	0.22	0.206	0.21	0.209	0.216	1.18	1.08	0.946	1.13	1.13
LCLC-103H	0.785	0.669	0.707	0.653	1.05	1.08	0.999	1.27	0.457	0.465	0.484	0.487	0.433	0.85	0.801	0.758	0.774	0.891
LCLC-97TM1	0.281	0.207	0.196	0.169	0.334	0.254	0.328	0.191	0.236	0.258	0.189	0.222	0.257	0.354	0.22	0.292	0.214	0.314
NCI-H727	0.927	0.746	0.874	0.509	0.968	0.875	0.6	0.27	0.674	0.652	0.659	0.634	0.694	0.689	0.639	0.646	0.639	0.658
NCI-H1355	0.347	0.347	0.359	0.331	1.1	1.02	1.13	0.943	0.401	0.372	0.368	0.395	0.429	0.801	0.726	0.723	0.824	0.64
HOP-62	0.224	0.203	0.217	0.23	0.893	0.966	0.675	0.889	0.481	0.423	0.42	0.513	0.499	0.715	0.34	0.607	0.731	0.57
NCI-H2085	0.621	0.561	0.532	0.508	0.762	0.832	0.696	0.553	0.492	0.481	0.451	0.486	0.463	0.874	1.03	0.902	0.971	0.969
